Source: ChEMBL document CHEMBL1147084, “From the Cover: Antipsychotic drug-induced weight gain mediated by histamine H1 receptor-linked activation of hypothalamic AMP-kinase” (Proc Natl Acad Sci U S A, 2007)
Calls of active or inactive are those of the source. The calls are words filed in the database; no cut-off is given here.

What was measured:
[1] = target: T1, Neuropeptide Y receptor type 1 (Homo sapiens) (UniProt P25929); assay: Binding affinity to neuropeptide Y receptor at 10 nM
T1 sequence (whole entry): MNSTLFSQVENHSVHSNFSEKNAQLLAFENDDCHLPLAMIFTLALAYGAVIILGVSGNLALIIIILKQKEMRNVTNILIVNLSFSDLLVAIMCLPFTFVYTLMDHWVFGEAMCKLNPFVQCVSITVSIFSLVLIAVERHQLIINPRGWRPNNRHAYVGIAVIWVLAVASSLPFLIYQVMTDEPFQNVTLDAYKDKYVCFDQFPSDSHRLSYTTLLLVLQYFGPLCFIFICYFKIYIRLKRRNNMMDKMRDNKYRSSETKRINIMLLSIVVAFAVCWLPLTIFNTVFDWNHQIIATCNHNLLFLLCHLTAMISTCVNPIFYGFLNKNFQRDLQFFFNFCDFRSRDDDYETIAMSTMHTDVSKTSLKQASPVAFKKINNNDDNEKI

[2] = Binding affinity to alphaMSH receptor at 10 nM
[3] = target: T1, Neuropeptide Y receptor type 1 (Homo sapiens); assay: Binding affinity to neuropeptide Y receptor at 100 nM
Hypothalamus = assay: Increase in phospho-AMPK levels in H1RKO mouse hyphalamic slices at 500 nM after 30 mins by Western blotting; assay type: functional, tissue-based
[4] = Binding affinity to alphaMSH receptor at 100 nM
Mus musculus [5] = species: Mus musculus; assay: Orexigenic activity in H1RKO mouse; assay type: functional, organism-based
[6] = target: T2, Leptin receptor (Homo sapiens) (UniProt P48357); assay: Binding affinity to leptin receptor at 100 nM
T2 sequence (whole entry): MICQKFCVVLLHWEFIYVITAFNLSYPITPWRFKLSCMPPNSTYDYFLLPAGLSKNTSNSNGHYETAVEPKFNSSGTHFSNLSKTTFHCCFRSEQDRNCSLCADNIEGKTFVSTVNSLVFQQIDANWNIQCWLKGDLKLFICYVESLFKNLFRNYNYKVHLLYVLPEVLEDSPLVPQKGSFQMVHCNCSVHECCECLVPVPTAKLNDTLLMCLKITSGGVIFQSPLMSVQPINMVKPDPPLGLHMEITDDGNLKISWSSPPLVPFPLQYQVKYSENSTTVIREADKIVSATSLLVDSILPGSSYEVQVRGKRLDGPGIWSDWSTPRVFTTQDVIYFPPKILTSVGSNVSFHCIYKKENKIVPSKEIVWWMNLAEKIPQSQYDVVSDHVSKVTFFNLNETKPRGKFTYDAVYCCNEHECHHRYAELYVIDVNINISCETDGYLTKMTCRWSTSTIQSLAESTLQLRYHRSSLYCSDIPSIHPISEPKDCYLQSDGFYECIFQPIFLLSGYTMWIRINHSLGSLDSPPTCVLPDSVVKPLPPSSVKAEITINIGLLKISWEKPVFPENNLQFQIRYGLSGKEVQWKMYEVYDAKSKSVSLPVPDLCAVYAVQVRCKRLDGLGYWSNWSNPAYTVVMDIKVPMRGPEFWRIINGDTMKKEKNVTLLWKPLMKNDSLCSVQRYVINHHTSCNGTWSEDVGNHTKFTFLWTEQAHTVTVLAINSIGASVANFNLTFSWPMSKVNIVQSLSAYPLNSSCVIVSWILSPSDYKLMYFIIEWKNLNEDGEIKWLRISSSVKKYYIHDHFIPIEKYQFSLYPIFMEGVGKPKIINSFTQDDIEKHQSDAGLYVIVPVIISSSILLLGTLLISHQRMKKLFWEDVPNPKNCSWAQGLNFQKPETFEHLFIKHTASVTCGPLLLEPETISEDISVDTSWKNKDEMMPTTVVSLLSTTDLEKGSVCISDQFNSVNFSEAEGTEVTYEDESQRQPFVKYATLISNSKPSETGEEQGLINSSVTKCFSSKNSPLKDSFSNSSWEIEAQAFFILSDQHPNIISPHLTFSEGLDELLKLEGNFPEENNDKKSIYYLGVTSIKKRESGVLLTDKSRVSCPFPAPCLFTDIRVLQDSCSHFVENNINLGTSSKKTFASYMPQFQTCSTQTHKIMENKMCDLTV

[7] = target: T2, Leptin receptor (Homo sapiens); assay: Binding affinity to leptin receptor at 10 nM
Mus musculus [8] = assay: Increase in phospho-AMPK levels in intact H1RKO mouse hypothalamus at 3 mg/kg, ip after 3 hrs by Western blotting; assay type: functional, organism-based; set-up: dose 3 mg/kg
Mus musculus [9] = assay: Increase in phospho-AMPK level in paraventricular hyphalamic nuclei intact H1RKO mouse at 3 mg/kg, ip after 3 hrs by immunohistochemistry; assay type: functional, organism-based; set-up: dose 3 mg/kg
Histamine H1 receptor = Histamine H1 receptor (Rattus norvegicus, UniProt P31390); assay: biochemical
Chain of Histamine H1 receptor (P31390 whole entry): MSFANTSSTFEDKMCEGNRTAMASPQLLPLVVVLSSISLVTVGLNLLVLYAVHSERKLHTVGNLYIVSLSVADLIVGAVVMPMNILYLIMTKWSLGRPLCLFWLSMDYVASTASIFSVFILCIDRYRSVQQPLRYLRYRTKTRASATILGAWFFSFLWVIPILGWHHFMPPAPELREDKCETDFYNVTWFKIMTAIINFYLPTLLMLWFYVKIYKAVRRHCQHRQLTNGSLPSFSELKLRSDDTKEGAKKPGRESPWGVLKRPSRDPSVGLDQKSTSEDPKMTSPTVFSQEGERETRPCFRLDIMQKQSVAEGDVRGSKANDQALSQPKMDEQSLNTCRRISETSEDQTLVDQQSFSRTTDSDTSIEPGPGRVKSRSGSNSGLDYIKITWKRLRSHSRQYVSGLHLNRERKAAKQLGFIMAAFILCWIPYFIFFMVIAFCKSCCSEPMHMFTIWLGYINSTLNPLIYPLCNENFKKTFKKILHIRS
Description: Displacement of [3H]mepyramine from H1R in rat brain

Mus musculus [10] = assay: Increase in phospho-AMPK in H1R knockout mouse at 3 mg/kg by immunohistochemistry; assay type: functional, organism-based; set-up: dose 3 mg/kg
Mus musculus [11] = assay: Reversal of leptin-induced reduction in hyphalamic phospho-AMPK in H1RKO mouse at 5 mg/kg after 3 hrs by Western blotting; assay type: functional, organism-based; set-up: dose 5 mg/kg
Mus musculus [12] = assay: Increase in phospho-AMPK level in paraventricular hyphalamic nuclei intact H1RKO mouse at 1 mg/kg after 3 hrs by immunohistochemistry; assay type: functional, organism-based; set-up: dose 1 mg/kg
Mus musculus [13] = species: Mus musculus; assay: Reversal of insulin-induced reduction in hyphalamic phospho-AMPK level in H1RKO mouse at 50 nM after 30 mins by Western blotting; assay type: functional, organism-based
Mus musculus [14] = assay: Increase in phospho-AMPK level in arcuate hyphalamic nuclei intact H1RKO mouse at 1 mg/kg after 3 hrs by immunohistochemistry; assay type: functional, organism-based; set-up: dose 1 mg/kg
Mus musculus [15] = assay: Increase in phospho-AMPK levels in intact H1RKO mouse liver at 1 mg/kg, ip after 3 hrs by Western blotting; assay type: functional, organism-based; set-up: dose 1 mg/kg
Mus musculus [16] = assay: Increase in cortical alpha-2AMPK levels in intact H1RKO mouse at 5 mg/kg after 3 hrs; assay type: functional
Mus musculus [17] = assay: Increase in phospho-AMPK level in paraventricular hyphalamic nuclei intact H1RKO mouse at 5 mg/kg after 3 hrs by immunohistochemistry; assay type: functional, organism-based; set-up: dose 5 mg/kg
Mus musculus [18] = species: Mus musculus; assay: Reversal of leptin-induced reduction in hyphalamic phospho-AMPK level in H1RKO mouse at 50 nM after 30 mins by Western blotting; assay type: functional, organism-based
Mus musculus [19] = assay: Increase in alpha-2AMPK levels in intact H1RKO mouse cerebellum at 1 mg/kg after 3 hrs; assay type: functional, organism-based; set-up: dose 1 mg/kg
Mus musculus [20] = assay: Increase in alpha-2AMPK levels in intact H1RKO mouse cerebellum at 5 mg/kg after 3 hrs; assay type: functional, organism-based; set-up: dose 5 mg/kg
Mus musculus [21] = assay: Increase in alpha-2AMPK levels in intact H1RKO mouse hypothalamus at 1 mg/kg after 3 hrs; assay type: functional, organism-based; set-up: dose 1 mg/kg
Mus musculus [22] = species: Mus musculus; assay: Reversal of histamine-induced reduction in hyphalamic phospho-AMPK level in H1RKO mouse at 200 nM after 30 mins by Western blotting; assay type: functional, organism-based
Mus musculus [23] = assay: Increase in alpha-2AMPK levels in intact H1RKO mouse cerebral cortex at 1 mg/kg after 3 hrs; assay type: functional, organism-based; set-up: dose 1 mg/kg
Mus musculus [24] = assay: Increase in phospho-AMPK level in arcuate hyphalamic nuclei intact H1RKO mouse at 5 mg/kg after 3 hrs by immunohistochemistry; assay type: functional, organism-based; set-up: dose 5 mg/kg
Mus musculus [25] = assay: Reversal of leptin-induced reduction in hyphalamic alpha-2AMPK activity in H1RKO mouse at 5 mg/kg; assay type: functional, organism-based; set-up: dose 5 mg/kg
Mus musculus [26] = assay: Increase in phospho-AMPK levels in intact H1RKO mouse cerebellum at 1 mg/kg, ip after 3 hrs by Western blotting; assay type: functional, organism-based; set-up: dose 1 mg/kg
Mus musculus [27] = assay: Increase in phospho-AMPK levels in intact H1RKO mouse hypothalamus at 1 mg/kg after 3 hrs; assay type: functional, organism-based; set-up: dose 1 mg/kg

Cc1cc2c(s1)Nc1ccccc1N=C2N1CCN(C)CC1
Activity [1]: inactive | Activity [2]: inactive | Activity [3]: inactive | Activity (Hypothalamus): Active | Activity [4]: inactive | Activity (Mus musculus [5]): Active | Activity [6]: inactive | Activity [7]: inactive

Cc1ccc(/C(=C\CN2CCCC2)c2ccccn2)cc1
Activity (Mus musculus [8]): Active | Activity (Hypothalamus): Active

Cc1nc2n(c(=O)c1CCN1CCC(c3noc4cc(F)ccc34)CC1)CCCC2
Activity (Hypothalamus): inactive

O=C(CCCN1CCC(O)(c2ccc(Cl)cc2)CC1)c1ccc(F)cc1
Activity (Hypothalamus): inactive | Activity (Mus musculus [5]): inactive

O=C1Cc2cc(CCN3CCN(c4nsc5ccccc45)CC3)c(Cl)cc2N1
Activity (Mus musculus [9]): inactive | Activity (Hypothalamus): inactive | Activity (Mus musculus [5]): inactive

OCCOCCN1CCN(C2=Nc3ccccc3Sc3ccccc32)CC1
Activity (Hypothalamus): Active | Activity (Mus musculus [5]): Active

O=C1CCc2ccc(OCCCCN3CCN(c4cccc(Cl)c4Cl)CC3)cc2N1 [ARIPIPRAZOLE]
IC50 (Histamine H1 receptor): > 3 µM | Activity (Hypothalamus): inactive | Activity (Mus musculus [5]): inactive

CN1CCN(C2=Nc3cc(Cl)ccc3Nc3ccccc32)CC1 [CLOZAPINE]
Activity (Mus musculus [10]): inactive | Activity (Mus musculus [11]): Active | Activity (Mus musculus [12]): Active | Activity (Mus musculus [13]): Active | Activity [1]: inactive | Activity (Mus musculus [14]): Active | Activity [2]: inactive | Activity (Mus musculus [15]): inactive | Activity (Mus musculus [16]): 20% | Activity (Mus musculus [17]): Active | Activity (Mus musculus [18]): Active | Activity (Mus musculus [19]): inactive | Activity [3]: inactive | Activity (Mus musculus [20]): inactive | Activity (Mus musculus [21]): Active | Activity (Mus musculus [22]): Active | Activity (Mus musculus [23]): inactive | Activity (Hypothalamus): Active | Activity (Mus musculus [24]): Active | Activity [4]: inactive | Activity (Mus musculus [25]): Active | Activity (Mus musculus [26]): inactive | Activity (Mus musculus [27]): Active | Activity (Mus musculus [5]): Active | Activity [6]: inactive | Activity [7]: inactive
